Structures can show the parent of a compound that is named as a salt. Where two headings read alike, the source gives them in different places.
How the values were obtained:
[1] = system: S. epidermidis SK9; assay: MIC, micro broth dilution; type: cell-based, Staphylococcus epidermidis; conditions: alone
Procedure: (§1) An assay was made using a minimum inhibitory concentration (MIC) and minimum bactericidal concentration (MBC) and minimum fungicidal concentration (MFC) determination. The MIC was determined by the micro broth dilution method in 96-well plates. Serial two-fold dilutions of tetrasodium EDTA (from 2% to 0.015%), ethanol (from 50% to 0.1%) and chlorhexidine HCl (from 100 μg/mL to 0.025 μg/mL) were prepared in MH broth with a final volume of 90 μL per well. A 10 μL containing 1×10^5 bacterial cells or 2×10^3 fungal cells were added to each well. The inoculated plates were covered with a lid, sealed with Parafilm, and incubated for 24 h at 37° C. with slight rocking on a tilting platform shaker. After incubation, the optical density at 600 nm (OD 600) of the cultures in each well was measured using an xMark™ Microplate Absorbance Spectrophotometer (Bio-Rad). […] MBCs and MFCs were determined by transferring 100 μL from each well with no apparent growth onto appropriate agar plates, followed by incubation for 24 h at 37° C.

[2] = system: Candida albicans SK4b; assay: MIC, micro broth dilution; type: cell-based; conditions: alone
Procedure: as §1

[3] = system: Escherichia coli ON29; assay: MIC, micro broth dilution; type: cell-based; conditions: alone
Procedure: as §1

[4] = system: Proteus mirabilis ON153; assay: MIC, micro broth dilution; type: cell-based; conditions: alone
Procedure: as §1

[5] = system: Pseudomonas aeruginosa SK1; assay: MIC, micro broth dilution; type: cell-based; conditions: alone
Procedure: as §1

[6] = system: Serratia marcescens SK2; assay: MIC, micro broth dilution; type: cell-based; conditions: alone
Procedure: as §1

[7] = system: Staphylococcus aureus ON89; assay: MIC, micro broth dilution; type: cell-based; conditions: alone
Procedure: as §1

[8] = system: Staphylococcus epidermidis ON170; assay: MIC, micro broth dilution; type: cell-based; conditions: alone
Procedure: as §1

[9] = system: Stenotrophomonas maltophilia ON17; assay: MIC, micro broth dilution; type: cell-based; conditions: alone
Procedure: as §1

[10] = system: MRSA ON184; assay: MIC, micro broth dilution; type: cell-based, S. aureus; conditions: alone
Procedure: as §1

[11] = system: E. coli SK2; assay: MIC, micro broth dilution; type: cell-based, Escherichia coli; conditions: alone
Procedure: as §1

[12] = system: S. epidermidis SK9; assay: Checkerboard titration, FICI; type: cell-based, Staphylococcus epidermidis; conditions: for concentration in combination: EDTA + ethanol
Procedure: (§2) A fourth composition and solution included tetrasodium EDTA with ethanol or chlorhexidine HCl. This fourth composition and solution were created using checkerboard titration methods using micro broth dilution in 96-well microtiter plates. The concentrations of antimicrobials used were based on previously determined MIC values. Briefly, 200 μL, of two-fold dilutions of tetrasodium EDTA and ethanol or chlorhexidine HCl were prepared in MH or MH II broth with standardized cell suspension. […] Microtiter plates were incubated at 37° C. for 24 h, and the results were analyzed. Each test was performed in duplicate and included a growth control without adding any antimicrobials.

[13] = system: MRSA ON184; assay: Checkerboard titration, FICI; type: cell-based, S. aureus; conditions: for concentration in combination: EDTA + ethanol
Procedure: as §2

[14] = system: E. coli SK2; assay: Checkerboard titration, FICI; type: cell-based, Escherichia coli; conditions: for concentration in combination: EDTA + ethanol
Procedure: as §2

[15] = system: S. epidermidis SK9; assay: MBC/MFC determination; type: cell-based, Staphylococcus epidermidis; conditions: alone
Procedure: as §1

[16] = system: C. albicans ON47; assay: Checkerboard, FMCI; type: cell-based, Candida albicans; conditions: for microbicidal concentration in combination: EDTA + ethanol
Procedure: as §1, §2

[17] = system: MRSA ON184; assay: MBEC assay, 48-h biofilm, 24 h exposure; type: cell-based, S. aureus
Procedure: A biofilm cultivation cell composition was provided. This fifth composition was created using an MBEC Assay® biofilm inoculator, consisting of a polystyrene lid with 96 downward-protruding pegs and a corresponding base used to grow biofilms. A standardized inoculum was diluted in an appropriate biofilm growth medium to achieve a viable cell count of 1.5×10^6 CFU/mL of bacterial cells or 5×10^5 CFU/mL of fungal cells. Then, 150 μL of this inoculum was transferred into each appropriate well, and the peg lids were inserted into the microtiter plates. The plates were sealed with Parafilm and were incubated at optimum temperature for 48 h with slight rocking for bacteria and shaking at 200 rpm for fungal strains. After incubation, the peg lid was removed from the base and rinsed twice with sterile phosphate-buffered saline (PBS) for 2 min to remove loosely attached non-sessile cells. Before the antimicrobial challenge, the pegs in column 1 (n=8) were considered the biofilm growth control; these pegs were removed from the lids, placed into 200 μL of recovery medium, and analyzed for starting biofilm cell numbers as described below. The rinsed pegs were placed into new 96-well plates containing two-fold dilutions of antimicrobials such as tetrasodium EDTA (4%-0.0125%), ethanol (100%-0.2%), and chlorhexidine HCl (100 μg/mL-0.4 μg/mL) in 200 μL of suitable biofilm growth medium per well and incubated at optimum temperature for 24 h. After the antimicrobial challenge, the pegs were rinsed twice with sterile PBS for 2 min and placed into a new 96-well plate containing 200 μL of recovery medium. The recovery plates were sealed with Parafilm, and biofilm cells were dislodged from the pegs by sonication for 30 min with a Branson 3510 bath sonicator. The biofilm cells in the recovery medium were serially diluted, and a drop dilution assay was performed to enumerate the viable cells. MBEC values were determined as the minimum concentration of antimicrobials that yielded a viable cell count at or lower than the 125 CFU/mL detection limit.

[18] = system: Staphylococcus epidermidis SK9; assay: FBEC index, checkerboard on biofilms; type: cell-based; conditions: for biofilm eradication concentration in combination (FBEC): EDTA + ethanol
Procedure: (§3) In step (4), microtiter plates are incubated at 37° C. for 24 h. then (6), after incubation, the bacterial and fungal cells were dislodged from the pegs into the recovery medium described above.
(§4) Three 10-μL aliquots, for a total of 30 μL from each well of recovery medium, were spotted on MH agar plates and incubated for 24 h at 37° C. […] The FBEC determination is a modification of the FICI.

[19] = system: Candida albicans SK4b; assay: FBEC index, checkerboard on biofilms; type: cell-based; conditions: for biofilm eradication concentration in combination (FBEC): EDTA + ethanol
Procedure: as §3, §4

| SMILES | MBC/MFC [15] | MBEC [17] | MIC [1] [% w/v] | MIC [2] [% w/v] | MIC [3] [% w/v] | MIC [4] [% w/v] | MIC [5] [% w/v] | MIC [6] [% w/v] | MIC [7] [% w/v] | MIC [8] [% w/v] | MIC [9] [% w/v] | MIC [10] [% w/v] | MIC [11] [% w/v] | concentration in combination [12] [% w/v] | concentration in combination [13] [% w/v] | concentration in combination [14] [% w/v] | microbicidal concentration in combination [16] [% w/v] | biofilm eradication concentration in combination (FBEC) [18] [% w/v] | biofilm eradication concentration in combination (FBEC) [19] [% w/v] | further results |
| --- | --- | --- | --- | --- | --- | --- | --- | --- | --- | --- | --- | --- | --- | --- | --- | --- | --- | --- | --- | --- |
| [H]/N=C(\N/C(=N/[H])NCCCCCCNC(=N)NC(=N)Nc1ccc(Cl)cc1)Nc1ccc(Cl)cc1 [Chlorhexidine HCl, 1,6-bis(4′-chlorophenylbiguanide) hexane] | 0.8 µg/mL | 50 µg/mL |  |  |  |  |  |  |  |  |  |  |  |  |  |  |  |  |  | MIC ([1]; Staphylococcus epidermidis, read-out: MIC): 0.1 µg/mL; MIC ([2]; read-out: MIC): 1.6 µg/mL; MIC ([3]; read-out: MIC): 0.4 µg/mL; MIC ([4]; read-out: MIC): 50 µg/mL; MIC ([5]; read-out: MIC): 1.6 µg/mL; MIC ([6]; read-out: MIC): 12.5 µg/mL; MIC ([7]; read-out: MIC): 0.1 µg/mL; MIC ([8]; read-out: MIC): 0.1 µg/mL; MIC ([9]; read-out: MIC): 0.8 µg/mL; MIC ([10]; Staphylococcus aureus, read-out: MIC): 0.2 µg/mL; MIC ([11]; Escherichia coli, read-out: MIC): 0.4 µg/mL; Chlorhexidine HCl concentration in combination ([12]; EDTA + chlorhexidine HCl): 0.025 µg/mL; Chlorhexidine HCl concentration in combination ([13]; EDTA + chlorhexidine HCl): 0.2 µg/mL; Chlorhexidine HCl concentration in combination ([14]; EDTA + chlorhexidine HCl): 0.1 µg/mL; Chlorhexidine HCl microbicidal concentration in combination ([16]; EDTA + chlorhexidine HCl): 1.6 µg/mL; Chlorhexidine HCl biofilm eradication concentration in combination (FBEC) ([18]; EDTA + chlorhexidine HCl): 3.125 µg/mL; Chlorhexidine HCl biofilm eradication concentration in combination (FBEC) ([19]; EDTA + chlorhexidine HCl): 6.25 µg/mL |
| O=C([O-])CN(CCN(CC(=O)[O-])CC(=O)[O-])CC(=O)[O-].[Na+].[Na+].[Na+].[Na+] [EDTA, tetrasodium EDTA] | 0.5 % w/v | 2 % w/v | 0.063 | 1 | 0.5 | 1 | 0.25 | 2 | 0.063 | 0.063 | 0.063 | 0.063 | 0.5 | 0.015 | 0.015 | 0.015 | 0.25 | 0.031 | 0.125 | EDTA concentration in combination ([12]; EDTA + chlorhexidine HCl): 0.015 % w/v; EDTA concentration in combination ([13]; EDTA + chlorhexidine HCl): 0.008 % w/v; EDTA concentration in combination ([14]; EDTA + chlorhexidine HCl): 0.008 % w/v; EDTA microbicidal concentration in combination ([16]; EDTA + chlorhexidine HCl): 0.031 % w/v; EDTA biofilm eradication concentration in combination (FBEC) ([18]; EDTA + chlorhexidine HCl): 0.125 % w/v; EDTA biofilm eradication concentration in combination (FBEC) ([19]; EDTA + chlorhexidine HCl): 0.063 % w/v |
| CCO [Ethanol, ethanol] | 12.5 % w/v | 12.5 % w/v | 6.25 | 6.25 | 12.5 | 6.25 | 3.125 | 6.25 | 6.25 | 3.125 | 6.25 | 6.25 | 12.5 | 0.4 | 0.4 | 6.25 | 3.125 | 1.6 | 1.6 |  |

— patent publication US20230263757A1, “DISINFECTING WIPE KIT FOR CENTRAL VENOUS ACCESS DEVICES” (SterileCare Inc., priority 2022, published 2023)
